Laboratory results: article PMC10497752, “Heparins are potent inhibitors of ectonucleotide pyrophosphatase/phospho-diesterase-1 (NPP1) – a promising target for the immunotherapy of cancer” (Frontiers in Immunology, 2023)

Columns and labels:
human NTPDase2 = molecular target: T1, human NTPDase2 (Homo sapiens, UniProt Q9Y5L3); test: NTPDase CE-based assay, NTPDase2; type: biochemical; settings: 20 µg/mL (12 µM); read-out: NTPDase2 inhibition, selectivity study
T1 construct: made in house; host or cells: COS-7 cells
T1 sequence (Q9Y5L3 1-495): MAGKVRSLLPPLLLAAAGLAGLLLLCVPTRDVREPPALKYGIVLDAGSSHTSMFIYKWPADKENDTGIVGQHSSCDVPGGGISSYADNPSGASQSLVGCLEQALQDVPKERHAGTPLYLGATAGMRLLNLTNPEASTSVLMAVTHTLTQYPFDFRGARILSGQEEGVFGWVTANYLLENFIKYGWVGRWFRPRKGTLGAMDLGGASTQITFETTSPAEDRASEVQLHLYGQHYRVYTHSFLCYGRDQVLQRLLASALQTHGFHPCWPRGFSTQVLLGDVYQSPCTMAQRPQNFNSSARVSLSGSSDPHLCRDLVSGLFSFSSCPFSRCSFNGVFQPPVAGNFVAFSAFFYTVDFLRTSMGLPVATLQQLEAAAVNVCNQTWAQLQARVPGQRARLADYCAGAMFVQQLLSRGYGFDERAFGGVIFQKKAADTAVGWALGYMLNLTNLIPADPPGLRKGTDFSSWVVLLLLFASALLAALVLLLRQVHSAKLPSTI
Method: (§1) For monitoring the activity of human NTPDases (subtypes 1, 2, 3 and 8) in the presence of test compounds, a CE-based assay system was used, according to a published procedure ([11], [25]). The following concentrations of test compounds were investigated in initial screening studies: 63 IU/mL of compounds 1 and 2, 30 µM of compound 6. For selectivity studies, the following concentration were employed: 50 IU/mL of 1, 12 µM of 6, and 48 µM of 7. The amount of enzyme was selected according to previously performed enzymatic titration, and adjusted to ensure a 10–20% conversion rate. Enzymes were obtained by transfection of COS-7 cells using plasmids encoding human NTPDase1 (GenBank accession number U87967) ([26]), NTPDase2 (NM_203468) ([27]), a kind gift of Dr. A.F. Knowles (San Diego, CA), NTPDase3 (AF034840) ([28]), a kind gift of Dr. T.L. Kirley (Cincinnati, OH) and human NTPDase8 (AY430414) ([29]) and purified as previously described ([30], [31]). The reaction buffer consisted of 10 mM HEPES, 2 mM CaCl2, and 1 mM MgCl2, pH 7.4. In the CE assay, the selected substrate concentration (ATP) was 100 µM for all studied human NTPDases (-1, -2, -3 and -8). […] The released products were separated by CE and quantified by their UV-absorption at 260 nm with ADP and AMP as external standards, as previously described ([11]); positive and negative controls were included.

human NTPDase3 = molecular target: T2, human NTPDase3 (Homo sapiens, UniProt O75355); test: NTPDase CE-based assay, NTPDase3; type: biochemical; settings: 20 µg/mL (12 µM)
T2 construct: made in house; host or cells: COS-7 cells
T2 sequence (O75355 1-529): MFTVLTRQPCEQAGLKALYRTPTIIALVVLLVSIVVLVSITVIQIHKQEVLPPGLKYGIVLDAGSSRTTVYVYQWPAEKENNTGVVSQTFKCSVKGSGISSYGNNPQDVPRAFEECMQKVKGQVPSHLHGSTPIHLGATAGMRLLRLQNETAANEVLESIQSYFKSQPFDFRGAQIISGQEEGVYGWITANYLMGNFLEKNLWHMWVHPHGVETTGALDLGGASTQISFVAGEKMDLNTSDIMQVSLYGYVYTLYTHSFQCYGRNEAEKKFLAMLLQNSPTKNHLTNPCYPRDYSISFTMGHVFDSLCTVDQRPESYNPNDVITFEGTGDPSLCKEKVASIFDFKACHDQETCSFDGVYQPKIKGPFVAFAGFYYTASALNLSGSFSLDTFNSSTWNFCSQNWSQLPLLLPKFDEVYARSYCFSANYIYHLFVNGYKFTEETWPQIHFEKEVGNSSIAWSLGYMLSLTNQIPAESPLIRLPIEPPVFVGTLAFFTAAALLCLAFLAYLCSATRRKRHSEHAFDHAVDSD
Method: as §1

SMILES: CO[C@H]1O[C@H](COS(=O)(=O)O)[C@@H](O[C@@H]2O[C@@H](C(=O)O)[C@@H](O[C@H]3O[C@H](COS(=O)(=O)O)[C@@H](O[C@@H]4O[C@H](C(=O)O)[C@@H](O[C@H]5O[C@H](COS(=O)(=O)O)[C@@H](O)[C@H](O)[C@H]5NS(=O)(=O)O)[C@H](O)[C@H]4O)[C@H](OS(=O)(=O)O)[C@H]3NS(=O)(=O)O)[C@H](O)[C@H]2OS(=O)(=O)O)[C@H](O)[C@H]1NS(=O)(=O)O [Compound 6, Fondaparinux]
- inhibition at 12 µM (human NTPDase2): ~35%
- NTPDase3 inhibition, selectivity study (human NTPDase3): no effect
